Measurements reported in PubChem BioAssay AID504646 (Southern Research Specialized Biocontainment Screening …, 2011).
Active and inactive are the calls of the source. No rule for the calls is given here.

Test: M. tuberculosis growth inhibition in 7H9, dose response, 7H9 media, purified and synthesized samples, set 3 (AID 504646)
Conditions: Mycobacterium tuberculosis growth in 7H9 media; at 25 µM (top of the series)

With `CCOC(=O)C(CC)Sc1ncnc2c1nnn2-c1ccc(F)cc1` (centres undefined) the growth inhibition was 12.2% (inactive).
For `C=CCn1c(SCC(=O)Nc2cccc3ccccc23)nc(O)c(CC)c1=O`, the growth inhibition was 26.9% (inactive).
For `CCc1cc(=O)[nH]c(SCC(=O)Nc2ccc3c(c2)OCCO3)n1`, the growth inhibition was 3.59% (inactive).
For `Cc1[nH]c(=S)[nH]c(=O)c1C`, the growth inhibition was -8.11% (inactive).
With `CCSc1nc(C)c(C)c(=O)[nH]1` the growth inhibition was 1.07% (inactive).
For `CC1CCN(C(=O)CSc2nc3ccccc3c(=O)[nH]2)CC1`, the growth inhibition was 2.14% (inactive).
For `O=C(C1CCC(CNc2c(N3CCCCC3)c(=O)c2=O)CC1)N1CCCCC1` (centres undefined), the growth inhibition was -2.59% (inactive).
With `Cc1cc(=O)[nH]c(SCC(=O)Nc2ncc(S(=O)(=O)c3ccc([N+](=O)[O-])cc3)s2)n1` the growth inhibition was -1.38% (inactive).
For `Cc1nc(SCC(=O)N(C)c2ccccc2)[nH]c(=O)c1C`, the growth inhibition was -13.6% (inactive).
